Assay results from ChEMBL document CHEMBL5029155, “Design, Synthesis, and Biological Evaluation of Stable Colchicine-Binding Site Tubulin Inhibitors 6-Aryl-2-benzoyl-pyridines as Potential Anticancer Agents” (J Med Chem, 2021).
pIC50: −log10 of the molar value. Calls of active or inactive are those of the source. The calls are words filed in the database; no cut-off is given here.

Key:
[1] = Metabolic stability in human liver microsomes assessed as intrinsic clearance in presence of NADPH regenerating system by UPLC-MS analysis; format: ADME, Microsome; conditions: read-out: CLH
[2] = Induction of cell cycle arrest in human A375/TxR cells assessed as accumulation at G2/M phase at 10 nM measured for 24 hrs by PI staining based flow cytometry analysis
Salmonella typhimurium [3] = assay: Mutagenicity in Salmonella typhimurium TA98 by Ames test; format: toxicity, organism-based; conditions: salmonella enterica subsp. enterica serovar typhimurium
[4] = Antimetastatic activity against human A375/TxR cells xenografted in SCID mouse assessed as metastatic in liver at 10 mg/kg, ip; format: functional
[5] = biological target: T1, CYP1A2 (description prints CYP1AA) (Homo sapiens, UniProt P05177); assay: Inhibition of […] in human liver microsomes using phenacetin as substrate at 10 uM; format: ADME; conditions: probe phenacetin
T1 sequence (P05177 whole entry): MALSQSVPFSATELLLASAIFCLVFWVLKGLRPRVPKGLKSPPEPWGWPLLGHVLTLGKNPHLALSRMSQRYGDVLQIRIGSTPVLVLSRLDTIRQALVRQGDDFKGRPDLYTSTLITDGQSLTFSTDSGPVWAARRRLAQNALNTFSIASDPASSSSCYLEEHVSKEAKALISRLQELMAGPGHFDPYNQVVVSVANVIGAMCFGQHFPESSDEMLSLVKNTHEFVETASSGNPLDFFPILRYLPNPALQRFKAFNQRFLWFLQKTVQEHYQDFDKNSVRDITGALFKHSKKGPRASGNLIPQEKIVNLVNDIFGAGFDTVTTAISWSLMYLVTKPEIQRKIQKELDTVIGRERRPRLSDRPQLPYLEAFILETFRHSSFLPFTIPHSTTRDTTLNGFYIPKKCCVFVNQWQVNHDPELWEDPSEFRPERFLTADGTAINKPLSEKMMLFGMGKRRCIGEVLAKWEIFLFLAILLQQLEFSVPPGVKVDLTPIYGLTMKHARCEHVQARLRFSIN

CYP2B6 = biological target: T2, CYP2B6 (Homo sapiens, UniProt P20813); assay: Inhibition of CYP2B6 in human liver microsomes using bupropion as substrate at 10 uM; format: ADME; conditions: probe bupropion
T2 sequence (P20813 whole entry): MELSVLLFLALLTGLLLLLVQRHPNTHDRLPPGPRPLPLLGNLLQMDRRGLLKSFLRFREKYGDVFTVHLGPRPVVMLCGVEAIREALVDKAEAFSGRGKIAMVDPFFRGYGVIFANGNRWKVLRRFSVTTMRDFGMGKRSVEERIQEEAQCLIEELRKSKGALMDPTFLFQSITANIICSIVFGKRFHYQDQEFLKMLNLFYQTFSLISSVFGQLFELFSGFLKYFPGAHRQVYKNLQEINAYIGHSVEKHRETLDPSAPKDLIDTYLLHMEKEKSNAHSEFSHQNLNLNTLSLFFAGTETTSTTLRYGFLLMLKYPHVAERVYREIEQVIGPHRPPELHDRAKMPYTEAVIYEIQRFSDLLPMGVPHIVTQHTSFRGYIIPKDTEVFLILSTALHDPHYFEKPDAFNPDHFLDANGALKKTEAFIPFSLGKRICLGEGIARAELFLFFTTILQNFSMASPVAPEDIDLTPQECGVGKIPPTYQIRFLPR

MDA-MB-453 = assay: Antiproliferative activity against human MDA-MB-453 cells assessed as cell growth inhibition incubated for 72 hrs by MTS assay; format: functional, cell-based; conditions: MDA-MB-453, 72 h
[6] = Metabolic stability in mouse liver microsomes assessed as intrinsic clearance in presence of NADPH regenerating system by UPLC-MS analysis; format: ADME, Microsome; conditions: read-out: CLH
[7] = Induction of apoptosis in human A375/TxR cells assessed as apoptotic cells at 5 nM measured for 24 hrs by annexin VFITC /PI staining based analysis (reference value: […]); format: functional
M14 [8] = assay: Cytotoxicity against human M14 cells measured after 72 hrs […]; format: functional, cell-based; conditions: M14, 72 h
Sus scrofa = organism: Sus scrofa; assay: Inhibition of porcine brain tubulin polymerization assessed as inhibition of microtubule polymerization at 10 uM measured for 1 hrs by microplate reader method
[9] = Anticlonogenic activity against paclitaxel resistant human A-375 cells assessed as inhibition of colony formation at 5 nM treated for 7 days by crystal violet staining based microscopic analysis; format: functional, A375/TxR; set-up: scale not given: the % may be the effect or the level left; conditions: time 7 day
[10] = Systemic toxicity in human A375/TxR cells xenografted in SCID mouse tumor model assessed as pathological change in spleen at 10 to 20 mg/kg, ip by H and E staining based analysis; format: organism-based; conditions: in vivo, dose 10-20 mg/kg
CYP2D6 = CYP2D6 (Homo sapiens, UniProt P10635); assay: Inhibition of CYP2D6 in human liver microsomes using dextromethorphan as substrate at 10 uM; format: ADME; conditions: probe dextromethorphan
[11] = Cytotoxicity against paclitaxel resistant human A-375/TxR cells measured after 72 hrs […]; format: functional, cell-based; conditions: A375/TxR
[12] = Systemic toxicity in human A375/TxR cells xenografted in SCID mouse tumor model assessed as pathological change in lungs at 10 to 20 mg/kg, ip by H and E staining based analysis; format: organism-based; conditions: in vivo, dose 10-20 mg/kg
CYP2C19 = CYP2C19 (Homo sapiens, UniProt P33261); assay: Inhibition of CYP2C19 in human liver microsomes using omeprazole as substrate at 10 uM; format: ADME; conditions: probe omeprazole
A375/TxR [13] = assay: Antitumor activity against human A375/TxR cells xenografted in SCID mouse assessed as tumor necrosis at 10 to 20 mg/kg, ip by H and E staining based analysis; format: functional, organism-based; conditions: dose 10-20 mg/kg
CYP3A = assay: Inhibition of CYP3A in human liver microsomes using testosterone as substrate at 10 uM; format: ADME; conditions: probe testosterone
[14] = Systemic toxicity in human A375/TxR cells xenografted in SCID mouse tumor model assessed as pathological change in heart at 10 to 20 mg/kg, ip by H and E staining based analysis; format: organism-based; conditions: in vivo, dose 10-20 mg/kg
[15] = Antitumor activity against human A375/TxR cells xenografted in SCID mouse assessed as reduction in tumor volume at 20 mg/kg, ip administered 3 times/week for 18 days; format: functional; set-up: scale not given: the % may be the effect or the level left; conditions: time 18 day
A375/TxR [16] = assay: Antimetastatic activity against human A375/TxR cells xenografted in SCID mouse assessed as metastatic in liver at 20 mg/kg, ip; format: functional, organism-based
A375/TxR [17] = assay: Induction of cell cycle arrest in human A375/TxR cells assessed as decrease in accumulation at G1 phase measured for 24 hrs by PI staining based flow cytometry analysis; format: functional
[18] = Metabolic stability in mouse liver microsomes assessed as half life in presence of NADPH regenerating system by UPLC-MS analysis; format: ADME, Microsome; conditions: microsomes
[19] = Antitumor activity against human A375/TxR cells xenografted in SCID mouse assessed as reduction in tumor volume at 10 mg/kg, ip administered 3 times/week for 18 days; format: functional; set-up: scale not given: the % may be the effect or the level left; conditions: time 18 day
Salmonella typhimurium [20] = assay: Mutagenicity in Salmonella typhimurium […] by Ames test; format: toxicity, organism-based; conditions: salmonella enterica subsp. enterica serovar typhimurium
M14 [21] = assay: Cytotoxicity against paclitaxel resistant human M14 cells measured after 72 hrs […]; format: functional, cell-based; conditions: M14, 72 h
A375/TxR [22] = assay: Induction of cell cycle arrest in human A375/TxR cells assessed as accumulation at G2/M phase measured for 24 hrs by PI staining based flow cytometry analysis; format: functional

Sequence of CYP2D6 (P10635 whole entry): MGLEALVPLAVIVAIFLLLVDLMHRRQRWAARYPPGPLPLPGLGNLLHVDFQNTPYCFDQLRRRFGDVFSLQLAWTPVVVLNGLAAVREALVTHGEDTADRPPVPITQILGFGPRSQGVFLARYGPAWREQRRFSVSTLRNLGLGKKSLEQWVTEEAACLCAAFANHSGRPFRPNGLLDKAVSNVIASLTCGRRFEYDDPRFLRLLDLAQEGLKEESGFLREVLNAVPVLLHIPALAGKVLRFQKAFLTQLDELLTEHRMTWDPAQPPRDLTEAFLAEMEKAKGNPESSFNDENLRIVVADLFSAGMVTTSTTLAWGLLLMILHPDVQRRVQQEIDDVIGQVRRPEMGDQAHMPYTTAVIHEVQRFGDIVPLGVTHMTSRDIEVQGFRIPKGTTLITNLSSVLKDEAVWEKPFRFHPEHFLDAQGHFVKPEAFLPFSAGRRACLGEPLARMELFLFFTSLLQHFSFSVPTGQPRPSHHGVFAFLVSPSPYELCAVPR
Sequence of CYP2C19 (P33261 whole entry): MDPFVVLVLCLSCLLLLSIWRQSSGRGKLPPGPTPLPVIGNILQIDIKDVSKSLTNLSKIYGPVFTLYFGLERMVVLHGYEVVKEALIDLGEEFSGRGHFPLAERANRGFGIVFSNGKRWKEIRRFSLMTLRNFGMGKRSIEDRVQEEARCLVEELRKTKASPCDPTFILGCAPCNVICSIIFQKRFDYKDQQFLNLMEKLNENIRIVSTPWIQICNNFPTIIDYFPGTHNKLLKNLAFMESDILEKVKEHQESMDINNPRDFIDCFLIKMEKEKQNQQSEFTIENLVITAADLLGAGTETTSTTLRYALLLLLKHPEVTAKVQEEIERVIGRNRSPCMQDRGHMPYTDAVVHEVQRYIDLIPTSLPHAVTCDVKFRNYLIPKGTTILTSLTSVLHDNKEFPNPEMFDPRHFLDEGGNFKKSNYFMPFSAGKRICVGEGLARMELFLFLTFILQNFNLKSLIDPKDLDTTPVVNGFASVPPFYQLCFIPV

CLint scaled [1]: 42.3 mL/min/kg | inhibition at 10 µM [5]: 50.9% | inhibition at 10 µM (CYP2B6): 12% | pIC50 (MDA-MB-453): 8.85 | CLint scaled [6]: 4.6 mL/min/kg | inhibition (Sus scrofa): Active | inhibition at 10 µM (CYP2D6): 11.9% | inhibition at 10 µM (CYP2C19): 49% | inhibition at 10 µM (CYP3A): 51.8% | t1/2 [18]: > 4 h
Structure (SMILES): COc1cc(C(=O)c2nc(-c3ccc(C)c(O)c3)ccc2F)cc(OC)c1OC
Activity [2]: 62% | Activity (Salmonella typhimurium [3]): Non-Toxic | Activity [4]: 33% | Activity [7]: 45.4% | pIC50 (M14 [8]): 8.55 | Activity [9]: 95% | Activity [10]: Non-Toxic | pIC50 [11]: 8.28 | Activity [12]: Non-Toxic | Activity (A375/TxR [13]): Active | Activity [14]: Non-Toxic | Activity [15]: 72.9% | Activity (A375/TxR [16]): inactive | Activity (A375/TxR [17]): Dose-Dependent Effect | Activity [19]: 57.6% | Activity (Salmonella typhimurium [20]): Non-Toxic | pIC50 (M14 [21]): 8.31 | Activity (A375/TxR [22]): Dose-Dependent Effect
